We go through five compounds from publication PMC6753193 (Frontiers in Microbiology, 2019).

Like-named read-outs stand apart in the source and are kept apart here. Where only a bound is given, the exact number is not on record here.

For data set [1], the system named is EBOV. The following applies: cited from earlier work.
The subject of data set [2] is EBOV VP30. Type of data set: cell-based, Ebola virus.
The target in data set [3] is PP1α (Oryctolagus cuniculus, UniProt P62139). Type of data set: biochemical.
For data set [4], the system named is EBOV-eGFP. Kind of data set: microbe, parasite or virus in culture. Type of data set: cell-based, Ebola virus.
In data set [5] the test system is HEK293T cells.
The target of data set [6] is WT PP1 (Homo sapiens, UniProt P62136). In words: biochemical. It is filed as binding.
Data set [7] in a line: in vitro. The settings on record: human.
Data set [8] concerns the target PP1 MUT:cdNIPP1 RATA (Homo sapiens, UniProt P62136, A299E/G274E/L73Y/Y70W). Kind of data set: cell-based.
Data set [9] concerns the target PP1:cdNIPP1 helix MUT (Homo sapiens, UniProt P62136). In words: cell-based.
In data set [10] the target is PP1 MUT:cdNIPP1 (Homo sapiens, UniProt P62136, A299E/G274E/L73Y/Y70W). In words: cell-based.
For data set [11] the following is noted: 24 h.
The target in data set [12] is T1, PP1 (Homo sapiens, UniProt P62136). It is filed as binding.
The subject of data set [13] is EBOV minigenome. Type of data set: cell-based, Ebola virus.
Data set [14] has as its target PP1:cdNIPP1 (Homo sapiens, UniProt P62136). In words: cell-based.
Data set [15] addresses T1, PP1. It is filed as binding. The source holds these as a separate data set.
Data set [16] deals with PP1:cdNIPP1 RATA (Homo sapiens, UniProt P62136). In words: cell-based.
Data set [17] concerns the target PP1 (Homo sapiens, UniProt P36873). It is filed as cell-based.
The conditions of data set [18]: 1 h, pH 7.4.
Data set [19] relates to EBOV-eGFP. Kind of data set: microbe, parasite or virus in culture. It is filed as cell-based, Ebola virus. The settings on record: Zaire ebolavirus, Vero C1008, 48 h, read-out: IC50 EBOV inhibition (virus titer).
For data set [20] the following is noted: 1 h, pH 7.4. This is another data set of the same source.
For data set [21], the system named is Vero-E6 cells.
The nature of data set [22]: in vitro. The following applies: mouse, serum.

WT PP1, sequence (P62136 7-300 limits assumed): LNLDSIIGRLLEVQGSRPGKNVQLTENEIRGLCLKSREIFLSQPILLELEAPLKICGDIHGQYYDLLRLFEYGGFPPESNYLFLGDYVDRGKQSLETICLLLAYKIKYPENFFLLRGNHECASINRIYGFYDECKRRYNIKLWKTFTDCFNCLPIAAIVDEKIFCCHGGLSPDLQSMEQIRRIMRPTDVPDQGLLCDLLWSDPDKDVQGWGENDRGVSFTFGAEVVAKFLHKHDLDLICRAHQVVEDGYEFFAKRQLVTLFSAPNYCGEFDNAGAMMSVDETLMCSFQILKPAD
T1 sequence (P62136 7-300 limits assumed): as above
PP1 MUT:cdNIPP1, sequence (P62136 whole entry Y70W/L73Y/G274E/A299E, looked up): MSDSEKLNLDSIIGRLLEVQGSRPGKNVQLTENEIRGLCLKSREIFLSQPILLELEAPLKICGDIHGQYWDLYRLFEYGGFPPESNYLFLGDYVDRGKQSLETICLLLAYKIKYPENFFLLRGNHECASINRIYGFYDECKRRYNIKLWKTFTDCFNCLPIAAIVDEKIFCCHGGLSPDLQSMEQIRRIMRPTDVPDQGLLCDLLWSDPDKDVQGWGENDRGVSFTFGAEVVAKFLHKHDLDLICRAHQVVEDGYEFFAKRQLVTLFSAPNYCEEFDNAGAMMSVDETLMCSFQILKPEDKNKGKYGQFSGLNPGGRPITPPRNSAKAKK
PP1 MUT:cdNIPP1 RATA, sequence (P62136 whole entry Y70W/L73Y/G274E/A299E, looked up): as above
PP1:cdNIPP1 helix MUT, sequence (P62136 whole entry, looked up): as the sequence (P62136 whole entry Y70W/L73Y/G274E/A299E, looked up) above, with W70Y, Y73L, E274G, E299A counted along it
PP1:cdNIPP1, sequence (P62136 whole entry, looked up): as the sequence (P62136 whole entry Y70W/L73Y/G274E/A299E, looked up) above, with W70Y, Y73L, E274G, E299A counted along it
PP1:cdNIPP1 RATA, sequence (P62136 whole entry, looked up): as the sequence (P62136 whole entry Y70W/L73Y/G274E/A299E, looked up) above, with W70Y, Y73L, E274G, E299A counted along it
PP1 (Homo sapiens, UniProt P36873), sequence (P36873 whole entry, looked up): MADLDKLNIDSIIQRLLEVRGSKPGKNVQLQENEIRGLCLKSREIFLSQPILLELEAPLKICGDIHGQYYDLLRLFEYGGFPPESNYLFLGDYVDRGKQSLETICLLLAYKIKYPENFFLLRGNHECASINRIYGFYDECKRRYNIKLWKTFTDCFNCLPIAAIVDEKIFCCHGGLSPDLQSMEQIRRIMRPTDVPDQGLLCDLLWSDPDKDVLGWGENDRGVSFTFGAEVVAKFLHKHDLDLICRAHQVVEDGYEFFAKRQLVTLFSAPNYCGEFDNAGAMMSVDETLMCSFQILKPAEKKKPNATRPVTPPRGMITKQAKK
PP1α, sequence (P62139 whole entry, looked up): as the sequence (P62136 whole entry Y70W/L73Y/G274E/A299E, looked up) above, with W70Y, Y73L, E274G, E299A counted along it

For the compound `CCNC(=O)NC(=O)C(C)OC(=O)c1c2c(nc3ccccc13)/C(=C\c1cccc([N+](=O)[O-])c1)CCC2` (centres unmarked) [1E7], the EBOV inhibition result in data set [1] is “inhibited EBOV”.

Take `C=C1[C@@H](O)[C@@H]2O[C@]3(CC[C@H](/C=C/[C@@H](C)[C@@H]4CC(C)=C[C@@]5(O[C@H](C[C@@](C)(O)C(=O)O)CC[C@H]5O)O4)O3)CC[C@H]2O[C@@H]1[C@@H](O)C[C@H](C)[C@H]1O[C@@]2(CCCCO2)CC[C@H]1C` [okadaic acid]: the “increase of VP30 phosphopeptides (Thr-119 and Ser-124) vs DMSO control” value in [2] is on record as 3.3 fold.

For orientation: Kd means the concentration at which binding is half-saturated. Higher therefore signals weaker binding. Usually IC50 stands for the concentration needed to halve the response being measured. Broadly, the half-life is the time in which the quantity being followed falls by half. On to `COc1ccc(C=C2CCc3c2nc2ccccc2c3C(=O)OC(C)C(=O)NC2CC2)cc1OC` (centres unmarked) [1E7-07], for which the “effect on PP1 enzymatic activity” value in [3] is “no effect”. Moreover, the “EBOV inhibitory activity (comparison among analogs)” value in [4] was “best EBOV inhibitory activity”. Further, the inhibition at 10 µM in data set [4] (Zaire ebolavirus, Vero C1008, 72 h, read-out: EBOV inhibitory activity) was about 70%. The “effect on cellular viability” value in [5] is recorded as “no effect on cellular viability”. The Kd in data set [6] amounted to 0.661 µM. Besides, in data set [6], the Rmax was 9.763 RU. In addition, in data set [6], the kd was 0.0009566 s⁻¹. Further, the kon in data set [6] (pH 7.4, read-out: ka) came out at 1450 M⁻¹ s⁻¹. For the same compound, in [7], the CC50 is over 300 µM. Further, the IC50 was over 20 µM in [8]; 4.3 µM in data set [9]; 4.5 µM in data set [10]; 3.7 µM in data set [14]; over 20 µM in data set [16]; 8.6 µM in data set [19]. In addition, the “remaining in human serum” value (human, serum, 24 h) is “no degradation”. The “remained in mouse serum” value in data set [11] was 25%. Also, the “protection of peptide 75[…]96 from ELNLLB painting” value in data set [12] was “over 90%”. In addition, in data set [12], the “recovered peptide signals compared to the control (protection from ELNLLB painting)” value is listed as “over 70%”. Also, the “inhibition of EBOV gene expression (Renilla luciferase)” value in data set [13] was “strongly inhibit”. Moreover, the “competition with pRb-Tat peptide binding to PP1” value in data set [15] is given as “competed dose-dependently”. The “effect on PP1 cellular localization” value in [17] is “does not affect”. In addition, the “remaining in human liver microsomes” value in data set [18] is listed as 90%. The “remained intact in mouse liver microsomes” value in [20] was “over 90%”. In addition, the “toxicity (Viral ToxGlo)” value in [21] is recorded as “no toxicity”. For the same compound, the half-life in data set [22] was 6 h.

`CC[C@H](C)[C@H](NC(=O)[C@H](Cc1ccccc1)NC(=O)[C@H](CS)NC(=O)[C@@H](NC(=O)[C@H](CCC(N)=O)NC(=O)[C@H](CS)NC(=O)[C@H](Cc1c[nH]cn1)NC(=O)[C@H](Cc1ccccc1)NC(=O)[C@H](CS)NC(=O)[C@H](CS)NC(=O)[C@H](CCCCN)NC(=O)[C@H](CCCCN)NC(=O)[C@H](CCCNC(=N)N)NC(=O)[C@H](CC(C)C)NC(=O)[C@@H]1CCCN1C(=O)[C@H](CO)NC(=O)[C@H](CO)NC(=O)[C@@H]1CCCN1C(=O)[C@H](Cc1ccccc1)NC(=O)[C@H](CCCCN)NC(=O)[C@H](Cc1ccc(O)cc1)NC(=O)[C@@H]1CCCN1C(=O)[C@H](COP(=O)(O)O)NC(=O)[C@H](CCCNC(=N)N)NC(=O)[C@@H]1CCCN1C(=O)[C@@H](NC(=O)[C@@H](N)Cc1c[nH]cn1)[C@@H](C)CC)C(C)C)C(=O)N[C@H](C(=O)N[C@@H](CCCCN)C(=O)O)[C@@H](C)O` [pRb-Tat, reference compound] returned an Rmax in data set [6] of 212.4 RU.

As for `CCNC(=O)NC(=O)C(C)OC(=O)c1c2c(nc3ccccc13)/C(=C\c1ccc(OC)c(OC)c1)CC2` (centres unmarked) [1E7-03], the “effect on cellular viability” value in [5] is listed as “no effect on cellular viability”. This compound also had a CC50 in data set [7] of over 300 µM. The IC50 was over 20 µM in data set [8]; 2.4 µM in data set [9]; 2.7 µM in [10]; 1.5 µM in data set [14]; over 20 µM in [16]; 7.2 µM in [19]. The “remaining in human serum” value (10 μM, 37°C, after 24 h) is reported as 78%. The “inhibition of EBOV gene expression (Renilla luciferase)” value in [13] (10 μM) is “strongly inhibit”. Also, in data set [18], the “remaining in human liver microsomes” value is 60%. Besides, the “remained intact in mouse liver microsomes” value in data set [20] is “over 90%”.
